Results on twelve molecules are retold here after ChEMBL document CHEMBL1201862, “PubChem BioAssay data set” (2004).

Holding throughout (test): inhibition of tumour cell growth, NCI panel, 48 h
The test system of assay [1] is ACHN.
Assay [2] has as its system BT-549.
Assay [3] deals with CAKI-1.
Assay [4] relates to COLO 205.
In assay [5] the test system is DU-145.
Assay [6] deals with HOP-62.
Assay [7] concerns KM12.
Assay [8] relates to LOX IMVI.
Assay [9] concerns MCF7.
For assay [10], the system named is NCI-H226.
Assay [11] deals with NCI-H460.
Assay [12] concerns NCI-H522.
The test system of assay [13] is RXF 393.
For assay [14], the system named is SF-539.
The subject of assay [15] is SW-620.
Assay [16] relates to UACC-62.
The test system of assay [17] is HL-60.
The test system of assay [18] is RPMI-8226.
For assay [19], the system named is CCRF-CEM.
Assay [20] concerns SR.

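Assay format: 96-well plates, 48-hour exposure. At the GI50, growth is halved.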 Active and inactive are the calls of the source. Cut-off read from the data, not from the text of the source: active = GI50 up to about 1.1 µM and inactive = higher. Where only a bound is given, the exact number is not on record here.

On to `CC1(C)[C@@H]2CC[C@]1(C)[C@H](OC(=O)CSC#N)C2`, for which the GI50 in [1], in [2], in assay [3], in [4], in [5] and in assay [6] was > 100 µM (inactive) each time. For the same molecule, the GI50 in [7] is > 100 µM (inactive); in [8] it was 35.2 µM (inactive); in assay [9] it was 65.9 µM (inactive); in assay [10], > 100 µM (inactive); in assay [11], > 100 µM (inactive); in assay [12] it was 43.9 µM (inactive). Also, the GI50 is > 100 µM (inactive) in assay [13], 28.7 µM (inactive) in assay [14], 17.9 µM (inactive) in assay [15] and > 100 µM (inactive) in assay [16].

Take `O=[N+]([O-])c1cccc(-c2ncnc(-c3cccc([N+](=O)[O-])c3)n2)c1`: the GI50 was 32.2 µM (inactive) in assay [2]; 18.4 µM (inactive) in [3]; > 100 µM (inactive) in [4]; > 100 µM (inactive) in assay [5]; 36.6 µM (inactive) in assay [17]; 17.8 µM (inactive) in [6]. For the same molecule, the GI50 in assay [7] is > 100 µM (inactive); in assay [8], > 100 µM (inactive); in [9], > 100 µM (inactive); in assay [10], > 100 µM (inactive); in assay [12], 38.5 µM (inactive); in assay [18] it was > 100 µM (inactive). Moreover, the GI50 in assay [13] is 18.5 µM (inactive); in [15], > 100 µM (inactive); in assay [16], 27.4 µM (inactive).

On to `Cc1c(-c2nc3ccccc3[nH]2)c(=O)n(-c2ccccc2)n1C`, for which the GI50 in assay [1], in [2], in assay [3], in assay [19], in assay [4] and in assay [5] was > 100 µM (inactive) in each case. Moreover, the GI50 in assay [17], in assay [6], in assay [7], in assay [8], in [9] and in [10] was > 100 µM (inactive) throughout. The GI50 in [11], in assay [12], in assay [18], in [13], in [14] and in assay [15] was > 100 µM (inactive) throughout. For the same molecule, in assay [16], the GI50 is > 100 µM (inactive).

Consider `O=C(CCN1CCOCC1)c1ccc(Oc2ccc(F)cc2)cc1`, for which the GI50 is 17.9 µM (inactive) in assay [1]; 18.2 µM (inactive) in assay [2]; 18 µM (inactive) in [3]; 30.8 µM (inactive) in assay [19]; 23 µM (inactive) in [4]; 36 µM (inactive) in assay [5]. Further, the GI50 in assay [17] was 35.5 µM (inactive); in assay [6] it was 50.2 µM (inactive); in assay [7] it was 17.4 µM (inactive); in assay [8] it was 21.8 µM (inactive); in assay [9], 18.7 µM (inactive); in [10] it was 26 µM (inactive). The GI50 in assay [11] was > 100 µM (inactive); in [14], 17.9 µM (inactive); in [15], 30.3 µM (inactive); in assay [16] it was 18.6 µM (inactive).

`COC1=CC(=O)C(C2(OC(C)C)OC(=O)C(Cl)=C2Cl)=CC1=O` (stereo unspecified): the GI50 in assay [1] was 51.4 µM (inactive); in [3], > 100 µM (inactive); in assay [19], 82.4 µM (inactive); in assay [4] it was > 100 µM (inactive); in [5], > 100 µM (inactive); in [17], < 0.01 µM (active). The GI50 in assay [6] is > 100 µM (inactive); in assay [7], > 100 µM (inactive); in [8], 64.1 µM (inactive); in assay [9], > 100 µM (inactive); in assay [10], > 100 µM (inactive); in assay [11], > 100 µM (inactive). In addition, the GI50 in assay [12] is 25.8 µM (inactive); in assay [18] it was > 100 µM (inactive); in assay [13], > 100 µM (inactive); in assay [14], > 100 µM (inactive); in assay [20] it was 0.0115 µM (active); in assay [15], > 100 µM (inactive). In addition, the GI50 in assay [16] is > 100 µM (inactive).

With `Cc1ccc(-n2cc(-c3ccc(Cl)cc3)c3c(=N)n(N)cnc32)cc1`, the GI50 in assay [1] is 16.2 µM (inactive); in assay [2], 16.9 µM (inactive); in assay [3] it was 18.5 µM (inactive); in [19] it was 11.3 µM (inactive); in assay [4], 8.2 µM (inactive); in [5] it was 17.5 µM (inactive). Besides, the GI50 in assay [17] was 7.83 µM (inactive); in assay [6] it was 14.2 µM (inactive); in [8] it was 14.7 µM (inactive); in assay [9] it was 11 µM (inactive); in assay [10] it was 21 µM (inactive); in assay [11] it was 10.3 µM (inactive). For the same molecule, the GI50 in assay [12] is 14.5 µM (inactive); in assay [13], 4.69 µM (inactive); in assay [14], 13.4 µM (inactive); in assay [15], 12.4 µM (inactive); in assay [16], 13.2 µM (inactive).

In the case of `CCOC(=O)C1=COC(C)(c2ccccc2)CC1=O` (stereo unspecified), the GI50 in [1], in assay [2], in assay [3], in assay [4], in assay [5] and in assay [6] was > 100 µM (inactive) throughout. The GI50 in assay [7] is > 100 µM (inactive); in assay [9], > 100 µM (inactive); in assay [11], > 100 µM (inactive); in assay [12] it was > 100 µM (inactive); in assay [18] it was > 100 µM (inactive); in assay [13], 63.1 µM (inactive). For the same molecule, the GI50 in assay [14], in assay [15] and in [16] was > 100 µM (inactive) throughout.

In the case of `C=C(CC[C@@H](C(=O)O)[C@H]1[C@H](O)C[C@@]2(C)C3=CC[C@@H](C(=C)C)[C@](C)(CCC(=O)O)C3=CC[C@]12C)C(C)C` [PORICOIC ACID A], the GI50 in [1] is 17.6 µM (inactive); in assay [2], 18.5 µM (inactive); in [3] it was 15.2 µM (inactive); in [19], 29.6 µM (inactive); in [4] it was 23.1 µM (inactive); in assay [5], 20.6 µM (inactive). The GI50 in assay [17] was 15.9 µM (inactive); in assay [7], 18.3 µM (inactive); in assay [8] it was 19.3 µM (inactive); in [9], 17.1 µM (inactive); in assay [10], 19.7 µM (inactive); in [11] it was 18.2 µM (inactive). Besides, the GI50 was 20.4 µM (inactive) in [12]; 17.2 µM (inactive) in [13]; 20 µM (inactive) in [14]; 22.2 µM (inactive) in assay [15]; 15.3 µM (inactive) in assay [16].

For the molecule `CCCCCCCCCCCCCCN` [TETRADECYLAMINE], the GI50 in [1], in assay [2], in [3], in assay [19], in [4] and in [5] was > 100 µM (inactive) in each case. The GI50 in assay [17], in [6], in assay [7], in [8], in assay [9] and in assay [11] was > 100 µM (inactive) in each case. Moreover, the GI50 in assay [12], in assay [18], in assay [13], in assay [15] and in assay [16] was > 100 µM (inactive) in each case.

In the case of `Cn1c(=O)c2c(ncn2CCSS(=O)(=O)O)n(C)c1=O`, the GI50 was > 100 µM (inactive) in assay [1]; > 100 µM (inactive) in assay [2]; > 100 µM (inactive) in [3]; > 100 µM (inactive) in assay [4]; > 100 µM (inactive) in assay [5]; 86.9 µM (inactive) in assay [6]. The GI50 is > 100 µM (inactive) in assay [7]; > 100 µM (inactive) in [9]; > 100 µM (inactive) in [10]; 66.4 µM (inactive) in assay [11]; > 100 µM (inactive) in assay [12]; > 100 µM (inactive) in [18]. For the same molecule, the GI50 in assay [13] was 79.1 µM (inactive); in assay [14] it was > 100 µM (inactive); in [15], > 100 µM (inactive); in assay [16], 53.2 µM (inactive).

As for `COc1ccc(N2C(=O)C(C#N)=C(SC)C(C#N)C2=O)cc1` (stereo unspecified), the GI50 in assay [1], in [2], in [3], in assay [19], in assay [4] and in assay [6] was > 100 µM (inactive) throughout. The GI50 in [7], in assay [8], in assay [9], in assay [10], in [11] and in assay [12] was > 100 µM (inactive) in each case. Moreover, the GI50 in assay [13], in assay [14], in assay [15] and in assay [16] was > 100 µM (inactive) in each case.

With `COC(=O)[C@]12CC3C=CC1N(C3)C(CBr)c1c2n(S(=O)(=O)c2ccccc2)c2ccccc12` (stereo partly specified), the GI50 is 48.3 µM (inactive) in [1]; > 100 µM (inactive) in assay [2]; 74.6 µM (inactive) in [3]; 47.6 µM (inactive) in assay [19]; > 100 µM (inactive) in assay [4]; > 100 µM (inactive) in assay [5]. In addition, the GI50 in assay [17] was 35.1 µM (inactive); in [6], 92.3 µM (inactive); in [7], > 100 µM (inactive); in assay [8], 43.4 µM (inactive); in assay [9] it was 46.9 µM (inactive); in assay [10], 41.7 µM (inactive). In addition, the GI50 was 98.6 µM (inactive) in assay [11]; 27.9 µM (inactive) in assay [12]; 0.292 µM (active) in assay [18]; 33.2 µM (inactive) in assay [13]; > 100 µM (inactive) in [15]; 57.3 µM (inactive) in assay [16].
